For 27 molecules, Activity results are on record in ChEMBL document CHEMBL1129724, “Inhibitory potency of lithocholic acid analogs and other bile acids on glucuronosyltransferase activity in a colon cancer cell line” (Bioorg Med Chem Lett, 1996).

The assay concerns HT-29. The assay can be described thus: Inhibition of glucuronosyltransferase activity in the human colon cancer cell line HT-29 at 5 uM concentration. Format: cell-based. Also noted: scale not given: the % may be the effect or the level left.
Molecule `C[C@H](CCC(=O)O)[C@H]1CC[C@H]2[C@@H]3CC[C@@H]4C[C@H](O)CC[C@]4(C)[C@H]3CC[C@]12C` had an Activity of 25.3%.

With `CC(CCC(=O)O)C1CCC2C3C=CC4C[C@@H](O)CCC4(C)C3CCC12C` (some centres not stated), the Activity was 39.1%.

With `C[C@@H](CCC(=O)O)[C@H]1CC[C@H]2[C@@H]3[C@H](O)[C@@H](O)[C@@H]4C[C@H](O)CC[C@]4(C)[C@H]3CC[C@]12C`, the Activity turned out to be 100%.

Molecule `CC(CCC(=O)O)[C@H]1CC[C@H]2[C@@H]3[C@@H](O)[C@H](O)[C@@H]4C[C@H](O)CC[C@]4(C)[C@H]3CC[C@]12C` (some centres not stated) gave an Activity of 78.5%.

`CC(CCC(=O)O)[C@H]1CC[C@H]2[C@@H]3CC[C@@H]4C[C@@H](O)CC[C@]4(C)[C@H]3CC[C@]12C` (some centres not stated) came in with an Activity of 86.9%.

For `C[C@H](CCC(=O)O)[C@H]1CC[C@H]2[C@@H]3CC[C@@H]4C[C@H](O)CCC4(C)[C@H]3CC(O)[C@]12C` (single isomer, unassigned), the Activity was determined as 48%.

Take `CC(CCC(=O)O)[C@H]1CC[C@H]2[C@@H]3CC(=O)[C@@H]4C[C@H](O)CC[C@]4(C)[C@H]3CC[C@]12C` (some centres not stated): the Activity turned out to be 28.1%.

The molecule `CC(CCC(=O)O)[C@H]1CC[C@H]2[C@@H]3CC[C@@H]4C[C@@H](O)CC[C@]4(C)[C@H]3C[C@@H](O)[C@]12C` (some centres not stated) gave an Activity of 46.4%.

For the molecule `C[C@H](CCC(=O)O)[C@H]1CC[C@H]2[C@@H]3CCC4CC(O)CC[C@]4(C)[C@H]3CC[C@]12C` (single isomer, unassigned), the Activity was determined as 46.8%.

Consider `CC(CCC(=O)O)[C@H]1CC[C@H]2[C@@H]3CC[C@@H]4C[C@H](O)CC[C@]4(C)[C@H]3CC(=O)[C@]12C` (some centres not stated), for which the Activity worked out at 36.1%.

Regarding `CC(CC(O)C(=O)O)[C@H]1CC[C@H]2[C@@H]3CC[C@@H]4C[C@H](O)CC[C@]4(C)[C@H]3CC[C@]12C` (single isomer, unassigned), the Activity came to 55.4%.

Molecule `CC(CCC(=O)O)[C@H]1CC[C@H]2[C@@H]3C(=O)C[C@@H]4C[C@H](O)CC[C@]4(C)[C@H]3CC(=O)[C@]12C` (some centres not stated) displayed an Activity of 100%.

As for `C[C@H](CCC(=O)O)[C@H]1CC[C@H]2[C@@H]3[C@H](O)C[C@@H]4C[C@H](O)CC[C@]4(C)[C@H]3CC[C@]12C`, the Activity was found to be 38.4%.

Molecule `CC(CCC(=O)O)[C@H]1CC[C@H]2[C@@H]3[C@H](O)[C@H](O)[C@@H]4C[C@H](O)CC[C@]4(C)[C@H]3CC[C@]12C` (some centres not stated) showed an Activity of 73.9%.

In turn, `CC(CC(O)C(=O)O)[C@H]1CC[C@H]2[C@@H]3CC[C@@H]4C[C@H](O)CC[C@]4(C)[C@H]3CC[C@]12C` (mixture of isomers) returned an Activity of 40%.

On to `C[C@H](CCC(=O)O)[C@H]1CC[C@H]2[C@@H]3[C@@H](O)C[C@@H]4C[C@H](O)CC[C@]4(C)[C@H]3CC[C@]12C`, for which the Activity was determined as 73.3%.

Turning to `CC(CC(O)C(=O)O)[C@H]1CC[C@H]2[C@@H]3CC[C@@H]4C[C@H](O)CC[C@]4(C)[C@H]3CC[C@]12C` (stereo in doubt), the Activity worked out at 34.9%.

In the case of `CC(CCC(=O)O)[C@H]1CC[C@H]2[C@@H]3[C@H](O)C[C@@H]4C[C@H](O)CC[C@]4(C)[C@H]3C[C@@H](O)[C@]12C` (some centres not stated), the Activity came out at 98.3%.

Turning to `C[C@H](CCC(=O)O)[C@H]1CC[C@H]2[C@@H]3CC(O)[C@@H]4C[C@H](O)CC[C@]4(C)[C@H]3CC[C@]12C` (single isomer, unassigned), the Activity was 75.2%.

`CC(CCC(=O)O)[C@H]1CC[C@H]2[C@@H]3CC[C@@H]4CC(=O)CC[C@]4(C)[C@H]3CC[C@]12C` (some centres not stated) yielded an Activity of 46%.

The molecule `CC(CCC(C(=O)O)C(=O)O)[C@H]1CC[C@H]2[C@@H]3CC[C@@H]4C[C@H](O)CC[C@]4(C)[C@H]3CC[C@]12C` (some centres not stated) displayed an Activity of 74.3%.

For `CC(CCCCC(=O)O)[C@H]1CC[C@H]2[C@@H]3CC[C@@H]4C[C@H](O)CC[C@]4(C)[C@H]3CC[C@]12C` (some centres not stated), the Activity worked out at 41.9%.

Molecule `CC(CCC(=O)O)[C@H]1CC[C@H]2[C@@H]3C(=O)C[C@@H]4C[C@H](O)CC[C@]4(C)[C@H]3CC[C@]12C` (some centres not stated) showed an Activity of 51.1%.

Consider `CC(CCCO)[C@H]1CC[C@H]2[C@@H]3CC[C@@H]4C[C@H](O)CC[C@]4(C)[C@H]3CC[C@]12C` (some centres not stated), for which the Activity was 72.8%.

With `CC(CCC(=O)O)C1CCC2C3C=CC4C[C@H](O)CCC4(C)C3CCC12C` (some centres not stated), the Activity was 41.4%.

`CC(CCCOP(=O)(O)O)[C@H]1CC[C@H]2[C@@H]3CC[C@@H]4C[C@H](O)CC[C@]4(C)[C@H]3CC[C@]12C` (some centres not stated) had an Activity of 74%.

As to `C[C@H](CCC(=O)O)[C@H]1CC[C@H]2[C@@H]3CC[C@@H]4CCCC[C@]4(C)[C@H]3CC[C@]12C`, the Activity came to 92%.
